Experimental data taken from US10058587B2, “Peptide composition for cancer treatment by inhibiting TRPV6 calcium channel activity” (priority 2008, dated 2018).
Entries after “also recorded” stand apart in the source; their conditions may differ. Where no end group is shown, it is not given here.

How the values were obtained:
[1] = tested on: human SKOV3 ovarian cancer tumors; experiment: SKOV3 ovarian cancer xenograft, SorC27 versus saline and CAT (Example 14); assay type: in vivo, NOD/SCID mice
Procedure: Tumor volumes (V) are calculated by caliper measurement using standard measurements of the width (W), length (L) and thickness (T) of tumors. Animals are randomized into treatment groups so that the median tumor volumes of each group were similar at the start of dosing. % T/C values, as a measure of efficacy, are determined where C refers to volume of control or untreated tumor, and T refers to volume of treated tumor.
SKOV3 cells were obtained from ATCC, cultured and expanded to suitable numbers to establish xenografts in mice and then formulated into gel pellets and grafted under the renal capsule of surrogate NOD/SCID mice in order to establish the tumors. Tumors are then permitted to develop in vivo until the majority reach 100-200 mm^3 in tumor volume, which typically requires 1-2 weeks following implantation. Once xenografts are established, they are harvested and cut into multiple uniform pieces. Sixteen to eighteen pieces were implanted subcutaneously into each NOD/SCID mouse for experimentation. After 2 days, the animals are treated with either the test peptides or CAT or combinations.
Mice implanted with SKOV3 cells as detailed above received saline (control), SorC27 (400 mg/kg), by i.p. injection every day for 12 days or CAT injections one every week. The tumor volume and body weights were measured every day. As well, general health of the animals was monitored every day. The results shown in FIG. 12 are presented in terms of tumor load normalized to body weight. […] By Day 12 there was no statistically significant difference between CAT and SorC27 at this dose.

[2] = Tissue distribution of Cy5.5-labeled peptides by optical imaging; assay type: in vivo, CD1 mice
Description: SorC13 and SorC27 were labeled with the near-infrared probe, Cy5.5. SorC13 was labeled at lysine-1 and lysine-8 with the infrared fluorescent probe cy5.5 through reaction with Cy5.5 NHS ester-activated process. SorC27 was labeled at the single cysteine thiol with Cy5.5 maleamide-activated reaction. The labeled peptides were purified with a combination of size exclusion chromatography and HPLC. The label, Cy5.5, fluoresces in the infra-red region after excitation with a scanning laser. The low energy laser is able to penetrate the animal to about 1 cm and, thus, by scanning prone and supine positions, the presence of the tagged peptides can be quantified in three dimensions.
Cy5.5-labeled peptides were intravenously injected into CD1 mice (4 for each compound) at 100 ug per animal in 100 uL, and animals were imaged live using an optical imaging system, Optix eXplorer (GE Healthcare Systems) at different time points (30 min, 90 min, 4 h). […] The bio-distribution of the labeled peptides in different organs and tissues were visualized and relatively quantified by optical imaging analysis. This protocol allows for visualization of the location of the labeled peptides and how the location changes over time. […] Nodes that accumulated the labeled peptides are indicated by line 1 (superfacial cervical nodes), line 4 (axillary nodes), line 5 (brachial nodes), line 8 (mesenteric nodes) and line 9 (inguinal nodes). FIGS. 8, 9 and 10 show the amounts of labeled peptides in various organs ex vivo.

[3] = tested on: T47D breast cancer xenografts; experiment: T-47D breast cancer xenograft, SorC13 with Paclitaxel (Example 27); assay type: in vivo, NOD/SCID mice
Procedure: Tumor volumes (V) were calculated by caliper measurement using standard measurements of the width (W), length (L) and thickness (T) of tumors. Animals were randomized into treatment groups so that the median tumor volumes of each group were similar at the start of dosing. Percentage ΔT/ΔC values, as a measure of efficacy, were determined where ΔC refers to change in volume of control or untreated tumor, and ΔT refers to change in volume of treated tumor.
Animals were intraperitoneally (i.p.) injected with the vehicular control, or the low, medium or high doses of CAT or CAT and SorC13. Mice received low medium or high doses of CAT or CAT and SorC13 by i.p. injection every day for 12 days or CAT injections as set out in Table 10. Paclitaxel was injected first, followed by carboplatin 30 minutes later and then SorC13. The tumor volume and body weights were measured every day. As well, general health of the animals was monitored every day.
The human […] breast cancer cell line T-47D (ATCC #HTB-133), was cultured in growth media prepared with ATCC complete growth medium. The base medium for the T-47D cell line is ATCC-formulated RPMI-1640 Medium. The complete growth medium is supplemented with 0.2 Units/ml bovine insulin and fetal bovine serum to a final concentration of 10% (v/v). Cells were cultured at 37° C. in an atmosphere of 95% air and 5% carbon dioxide with sub-culturing done according to ATCC guidelines.
The cell preparation, formulation, implantation, measurement and treatment procedures were otherwise as described in Example 26 and Table 10 but with Paclitaxel at low (6 mg/kg), medium (10 mg/kg) and high (16 mg/kg) doses.

[4] = 400 mg/kg i.p. every day for 12 days

Sequence	% T/C ratio (mean tumour volume of treated/mean tumour volume of control) [1, 4]	decrease in tumour growth [1, 4]	tumor volume normalized to body weight versus control saline ([1]; over 12 days, SorC27 400 mg/kg i.p. daily, CAT once every week, 400 mg/kg)	detectable in tissues after perfusion ([2]; Cy5.5-tagged peptide, 24 hours)	tissue localization ([2]; Cy5.5-tagged peptide, i.v. 100 ug)	tissues with highest percent uptake (of total fluorescence) after perfusion ([2]; Cy5.5 labeled, 4 and 24 hours after i.v. injection)	% ΔT/ΔC (tumor volume normalized to control) ([3]; Day 6, SorC13 300 mg/kg)	% ΔT/ΔC (tumor volume normalized to control) ([3]; Day 12, SorC13 300 mg/kg)	% ΔT/ΔC (tumor volume normalized to control) ([3]; Day 18 (rest period), SorC13 300 mg/kg)	% ΔT/ΔC (tumor volume normalized to control) ([3]; Day 24 (rest period), SorC13 300 mg/kg)	Mean tumour volume ([3]; after 12-day rest post-treatment, SorC13 300 mg/kg)	Mean tumor volume ([3]; day 12 of treatment, SorC13 300 mg/kg i.p. daily)
EGKLSSNDTEGGLCKEFLHPSKVDLPR [SorC27]	39.9%	60.1%	greatly reduced tumor volume; also recorded: reduced the tumor volume significantly	still detectable	localize predominantly in lymph nodes, lung, liver and kidney	liver, lung and kidney						
KEFLHPSKVDLPR [SorC13, KEFLHPSKVDLPR]							66.0%	1.0%	54.5%	48.7%	55.76 mm^3	43.61 mm^3
